Laboratory results reported in patent US20180002371A1 (BAYLOR COLLEGE OF MEDICINE, priority 2014, published 2018).
pIC50: −log10 of the molar value.

Legend:
[1] = system: Female ICR mice; experiment: Electrocardiogram (EKG) measurements in mice; type: in vivo, mouse
Protocol: Electrocardiogram (EKG) Measurements. […] Non-invasive EKG recordings were made using the ECGenie system (Mouse Specifics) at several subsequent time points. […] Data acquisition was performed using the program LabChart 6 (ADlnstruments). Individual EKG signals were then evaluated using e-MOUSE physiologic waveform analysis software (Mouse Specifics) as previously described.

[2] = Pharmacokinetic studies of bufalin and 3-phospho-bufalin; settings: p-buf 0.5 mg/kg i.p.
Protocol: Five quality control (QC) samples at 10 ng/mL, 20 ng/mL, 500 ng/mL, 4000 ng/mL and 8000 ng/mL of plasma were prepared independently of those used for the calibration curves. QC samples were prepared on the day of analysis in the same way as the calibration standards.
Standards, QC samples, and unknown samples were injected into a LC/MS/MS machine for quantitative analysis. […] For i.p. injected P-Buf, the PK trace was fittedto a non-compartmental extravascular model.
P-Buf was dissolved in PBS and administered intraperitoneally at the same dose.

[3] = system: mouse heart tissues; experiment: H-E staining of mouse heart tissues; type: in vivo; settings: 24 hours after drug administration
[4] = system: MDA-MB-231-LM3-3 orthotopic breast tumors; experiment: Therapeutic efficacy in an orthotopic TNBC mouse model; type: in vivo; settings: 0.75 mg/kg three times per week
Protocol: Therapeutic Efficacy of 3-phospho-bufalin in an Orthotopic TNBC Mouse Model. To establish orthotopic breast tumors, 0.75×10^6 MDA-MB-231-LM3-3 cells were injected into one of the second mammary fat pads of nude mice (Charles River Laboratories, female, 6-7 weeks, n=6/group). When tumors became palpable, generally 14 days after injection, mice were randomized into two groups. The treatment group was then injected with phospho-bufalin subcutaneously (0.75 mg/kg per dose, 3 doses per week) for 3 weeks while the control group received PBS. Tumor lengths and widths were measured three times per week. Tumor sizes were calculated by: (length×width×width)/2.
The therapeutic efficacy of P-Buf was tested in an orthotopic TNBC model. LM3-3 cells (0.75×10^6 cells per mouse) were inoculated into the second pair of mammary gland fat pads of nude mice (female, […]). The mice were randomized into two groups based on luciferase imaging (n=6 per group). Fourteen days after tumor inoculation, the treatment group began receiving P-Buf (0.75 mg/kg) three times per week while the control group received PBS. Tumor volumes were measured three times per week. […] At day 31, the mice were euthanized and tumors were harvested. The tumors derived from PBS treated mice weighed ˜2.4 times more than those of the experimental treatment group (FIGS. 8B and C).

[5] = system: SUM159PT; experiment: Cell cytotoxicity assay (MTT), SUM159PT; type: cell-based; settings: 72 h, read-out: IC50 cell viability
Protocol: (§1) Cell Culture. Triple negative breast cancer (TNBC) cell lines HCC1143, SUM149PT, SUM159PT, and MDA-MB-231 were obtained from ATCC. The MDA-MB-231-LM3-3 (LM3-3) cell line was developed from lung metastasis derived from a MDA-MB-231-LM2 xenograft tumor in the mammary fat pad of a SCID mouse.
(§2) The HCC1143 cell line was grown in RPMI-1640 medium, SUM149PT and SUM159PT cell lines were grown in F-12 medium, and MDA-MB-231 cells were grown in DMEM. All culture media were supplemented with 10% fetal bovine serum. All cell lines were grown in a humidified incubator containing 5% CO2 at 37° C. Primary hepatocytes were isolated from an adult male mouse (C57BL) by collagenase perfusion (0.8 mg/mL; Sigma-Aldrich, C5138) through the portal vein and maintained in M199 medium with 10% FBS. The viability of freshly isolated hepatocytes was verified using Trypan blue staining.
(§3) Cell Cytotoxicity Assays. TNBC cells (5000 to 7000 cells per well) were seeded in 96-well plates in medium supplemented with 10% FBS. […] Cell viabilities relative to untreated control cells were plotted using Graphpad Prism.

[6] = biological target: T1, SRC-3 (Homo sapiens, UniProt Q9Y6Q9); settings: receptor interacting domain; cited from earlier work
T1 construct: endogenous in cells; host or cells: HCC1143, SUM149PT, SUM159PT, MDA-MB-231, MDA-MB-231-LM3-3
T1 sequence (Q9Y6Q9 whole entry, the tested form may be a part): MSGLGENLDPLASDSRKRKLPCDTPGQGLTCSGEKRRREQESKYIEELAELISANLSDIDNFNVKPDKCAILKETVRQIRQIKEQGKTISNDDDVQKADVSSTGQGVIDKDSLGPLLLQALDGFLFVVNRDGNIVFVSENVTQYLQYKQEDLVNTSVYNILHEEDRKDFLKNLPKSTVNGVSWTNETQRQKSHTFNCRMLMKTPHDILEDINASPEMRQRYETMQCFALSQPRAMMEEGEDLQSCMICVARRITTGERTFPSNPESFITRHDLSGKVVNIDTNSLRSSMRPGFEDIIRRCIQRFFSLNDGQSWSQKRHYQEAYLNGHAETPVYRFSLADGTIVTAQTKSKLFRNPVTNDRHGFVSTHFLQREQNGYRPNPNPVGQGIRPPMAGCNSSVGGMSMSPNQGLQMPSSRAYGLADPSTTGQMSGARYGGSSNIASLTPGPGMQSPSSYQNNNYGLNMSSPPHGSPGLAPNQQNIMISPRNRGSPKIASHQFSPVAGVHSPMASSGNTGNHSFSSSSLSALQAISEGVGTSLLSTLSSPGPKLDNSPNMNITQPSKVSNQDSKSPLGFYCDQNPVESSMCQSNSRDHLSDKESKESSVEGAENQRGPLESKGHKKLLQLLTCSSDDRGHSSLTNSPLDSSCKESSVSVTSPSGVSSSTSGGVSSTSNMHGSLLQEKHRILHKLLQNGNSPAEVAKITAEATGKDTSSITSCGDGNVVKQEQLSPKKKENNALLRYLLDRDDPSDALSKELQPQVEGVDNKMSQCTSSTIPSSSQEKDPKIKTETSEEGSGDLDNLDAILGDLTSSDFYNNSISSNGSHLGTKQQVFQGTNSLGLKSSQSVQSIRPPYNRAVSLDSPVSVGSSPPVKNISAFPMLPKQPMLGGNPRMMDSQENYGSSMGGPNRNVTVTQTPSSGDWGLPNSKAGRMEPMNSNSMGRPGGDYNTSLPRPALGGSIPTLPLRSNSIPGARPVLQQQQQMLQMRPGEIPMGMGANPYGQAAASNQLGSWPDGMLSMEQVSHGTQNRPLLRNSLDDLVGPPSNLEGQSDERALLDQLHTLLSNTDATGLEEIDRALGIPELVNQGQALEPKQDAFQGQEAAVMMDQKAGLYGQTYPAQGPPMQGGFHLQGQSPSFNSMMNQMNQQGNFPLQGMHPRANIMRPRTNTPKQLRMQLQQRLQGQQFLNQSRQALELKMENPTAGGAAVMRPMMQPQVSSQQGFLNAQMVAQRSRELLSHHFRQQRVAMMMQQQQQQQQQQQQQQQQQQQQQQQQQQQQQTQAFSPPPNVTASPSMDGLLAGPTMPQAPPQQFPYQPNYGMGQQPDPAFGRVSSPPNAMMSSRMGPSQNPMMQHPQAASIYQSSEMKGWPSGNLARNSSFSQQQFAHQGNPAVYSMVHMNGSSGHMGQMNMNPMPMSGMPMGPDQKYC

[7] = system: MDA-MB-231-LM3-3; experiment: Cell cytotoxicity assay (MTT), MDA-MB-231-LM3-3; type: cell-based; settings: MDA-MB-231-LM3-3, 72 h, read-out: IC50 cell viability
Protocol: as §1, §2, §3

[8] = system: LM3-3 cells; experiment: Single cell motility assay; type: cell-based
Protocol: Single Cell Motility Assays. Microtiter 96-well plates pre-coated with collagen V were covered with beads provided by a Cell Motility HCS kit (Thermo Scientific Co. Cat# K0800011). LM3-3 cells (500) were seeded in each bead-coated well. […] The cell track areas (pixels) were counted using Image J. To attain statistical significance, more than 50 cell tracks in each sample were counted.

[9] = system: cancer cells; settings: cited from earlier work
[10] = system: MDA-MB-231; experiment: Cell cytotoxicity assay (MTT), MDA-MB-231; type: cell-based; settings: MDA-MB-231, 72 h, read-out: IC50 cell viability
Protocol: as §1, §2, §3

[11] = biological target: T1, SRC-3; experiment: Western blotting of SRC-3 protein in TNBC cells; type: cell-based
Protocol: Western Blotting Assays. Cell lysate was prepared by adding RIPA buffer (containing 10 mM Tris-Cl pH 8.0, 1 mM EDTA, 0.5 mM EGTA, 1% Triton X-100, 0.1% sodium deoxycholate, 0.1% SDS, 140 mM NaCl, and protease inhibitors) to cells kept on ice. After spinning samples at 16,000 rpm for 15 minutes at 4 ° C., insoluble materials in the collected cell lysate were precipitated and discarded. The total protein concentration was measured using a Bradford protein assay. An equivalent mass of each sample was loaded and electrophoretically separated by 10% SDS-PAGE. Then, proteins on PAGE the gel were transferred to a PVDF membrane. Anti-SRC-3 (Cell Signaling Technology Co. Cat#2126) and anti-actin (Cell Signaling Technology Co. Cat#8457) were used to probe the membranes.

[12] = system: SUM149PT; experiment: Cell cytotoxicity assay (MTT), SUM149PT; type: cell-based; settings: 72 h, read-out: IC50 cell viability
Protocol: as §1, §2, §3

[13] = system: LM3-3 cells; experiment: Bufalin and gefitinib cotreatment, cell viability; type: cell-based
[14] = system: HCC1143; experiment: Cell cytotoxicity assay (MTT), HCC1143; type: cell-based; settings: HCC1143, 72 h, read-out: IC50 cell viability
Protocol: as §1, §2, §3

[15] = 3-phospho-bufalin 7.5 mg/kg i.p., +10 min post-injection
[16] = 3-phospho-bufalin 7.5 mg/kg i.p., −5 min post-injection (baseline)
[17] = 3-phospho-bufalin 11.25 mg/kg i.p., +5 min post-injection
[18] = 3-phospho-bufalin 11.25 mg/kg i.p., +10 min post-injection
[19] = 3-phospho-bufalin 11.25 mg/kg i.p., +15 min post-injection
[20] = 3-phospho-bufalin 11.25 mg/kg i.p., −5 min post-injection (baseline)

## C[C@]12CC[C@H](OP(=O)(O)O)C[C@H]1CC[C@@H]1[C@@H]2CC[C@]2(C)[C@@H](c3ccc(=O)oc3)CC[C@]12O [3-Phospho-Bufalin, 3-Phospho-bufalin]
[1]; 7.5 mg/kg and 11.25 mg/kg i.p.
  changes in EKG parameters: no significant changes in EKG parameters were observed
[1]; [15]
  HR: 788.7 ± 1.2 BPM
  QRS: 11.0 ± 0.1 ms
  QT: 38.2 ± 0.9 ms
  QTc: 43.8 ± 1.0 ms
  RR: 76.1 ± 0.1 ms
  ST: 27.6 ± 0.9 ms
[1]; [16]
  HR: 754.7 ± 6.6 BPM
  QRS: 10.6 ± 0.1 ms
  QT: 40.2 ± 0.6 ms
  QTc: 45.0 ± 0.5 ms
  RR: 79.6 ± 0.7 ms
  ST: 30.1 ± 0.7 ms
[1]; [17]
  HR: 779.7 ± 1.5 BPM
  QRS: 10.9 ± 0.1 ms
  QT: 37.1 ± 0.3 ms
  QTc: 42.3 ± 0.4 ms
  RR: 77.0 ± 0.1 ms
  ST: 26.7 ± 0.4 ms
[1]; [18]
  HR: 761.3 ± 7.5 BPM
  QRS: 11.1 ± 0.2 ms
  QT: 38.1 ± 0.6 ms
  QTc: 43.0 ± 0.6 ms
  RR: 78.8 ± 0.8 ms
  ST: 26.6 ± 0.5 ms
[1]; [19]
  HR: 755.0 ± 1.0 BPM
  QRS: 11.5 ± 0.1 ms
  QT: 39.1 ± 0.9 ms
  QTc: 43.9 ± 0.9 ms
  RR: 79.5 ± 0.1 ms
  ST: 28.1 ± 0.8 ms
[1]; [20]
  HR: 798.0 ± 12.8 BPM
  QRS: 10.6 ± 0.3 ms
  QT: 39.1 ± 2.4 ms
  QTc: 45.1 ± 2.9 ms
  RR: 75.8 ± 0.2 ms
  ST: 29.0 ± 2.2 ms
[2]; mice
  AUCInf: 0.046 ± 0.018 µM·h
  AUClast/D: 0.075 ± 0.044 µM·kg·h/mg
[2]; free bufalin detected in plasma
  conversion to parent bufalin in vivo: can be converted to parent bufalin in vivo
[3]
  histological examination of cardiomyocytes: little damage to cardiomyocytes
[4]; day 31
  tumor weight, PBS treated mice relative to treatment group: ~2.4 times
[4]; nude mice, LM3-3 tumors
  TNBC tumor growth (tumor volume): can significantly inhibit TNBC tumor growth

## C[C@]12CC[C@H](O)C[C@H]1CC[C@@H]1[C@@H]2CC[C@]2(C)[C@@H](c3ccc(=O)oc3)CC[C@]12O [Bufalin, bufalin]
[5]
  pIC50: > 7.70
[6]
  binding to SRC-3: directly binds to SRC-3 in its receptor interacting domain
[7]
  pIC50: > 7.70
[8]; 12 hour time point
  toxicity toward LM3-3 cells under motility assay conditions: minimal toxicity
[8]; increasing concentrations of bufalin
  motility of LM3-3 cells: decreased with increasing concentrations of bufalin
[9]
  IC50 values: low nM range
[10]
  pIC50: > 7.70
[11]; 100 nM, HCC1143, SUM149PT, SUM159PT, MDA-MB-231, MDA-MB-231-LM3-3
  SRC-3 protein expression: downregulate SRC-3 protein expression
[11]; MDA-MB-231-LM3-3
  SRC-3 protein level, dose dependence: downregulated SRC-3 in MDA-MB-231-LM3-3 in a dose-dependent manner
[12]
  pIC50: > 7.70
[13]; 5 or 10 nM bufalin with gefitinib, LM3-3 cells
  synergy with gefitinib on cell viability: synergize with gefitinib
[14]
  pIC50: 7.14

## COc1cc2ncnc(Nc3ccc(F)c(Cl)c3)c2cc1OCCCN1CCOCC1 [gefitinib]
[13]; gefitinib alone, up to 20 μM
  toxicity in LM3-3 cells: minimal toxicity
